Assay results: patent US20110294843A1, “ADMINISTRATION SCHEME OF POLAR OPIOID METABOLITES FOR POST-OPERATIVE PAIN MANAGEMENT” (PAION UK Limited, priority 2008, published 2011)
Like-named read-outs stand apart in the source and are kept apart here.

Experiments:
[1] = Pharmacokinetics of M6G at single and multiple intravenous doses in healthy volunteers; type: in vivo, human; details: for Vd / half-life / clearance / AUC(0-inf) / Cmax / MRT inf: both sexes, human, plasma, iv; for Vd: read-out: Vss; for half-life: read-out: t½ (converted); for AUC(0-inf): read-out: AUC0-∞; for Cmax: read-out: Cmax; for MRT inf: read-out: MRT0-∞; for CLss / MRT24-∞: multiple dose, Dose 5-15 mg
Experimental: Healthy male and female subjects were divided into two groups (A and B) with 12 in each. Group A received three single intravenous infusions of M6G over 5 mins at levels of 15, 30 and 45 mg/70 kg in random order, having taken 50 mg of naloxone orally 24 hrs beforehand. There was a seven-day wash-out period between each dose. Blood samples were taken pre-dose and at the following time-points: 3, 5, 15, 30 mins and 1, 2, 3, 4, 6, 12 and 24 hrs after the start of the infusion. Group, B received five, 15 mg/70 kg, intravenous infusions of M6G, each over five minutes, at 6-hourly intervals, having taken a 50 mg oral dose of naloxone 24 hrs before the first infusion. Blood samples were taken before each of the 5 doses, and at 3, 5, 15, 30 mins and at 1, 2, 3 and 4 hrs after the initiation of the 1st and 5th infusions and at 6 hrs after the 5th dose. Vital signs (supine blood pressure, pulse, respiratory rate and oral temperature), respiration rate, pulse oximetry and adverse events were monitored during the study. Plasma levels of M6G were measured using HPLC/ms/ms.

[2] = tested on: patients with pain treatment after surgery; assay: Meta analysis of four clinical studies with M6G pain treatment after surgery
Text: The four studies M6G001, M6G012, M6G015 and M6G022 are described in the following.
The following variables were included in the meta analysis:
Nausea (none, mild, moderate, severe)
Sedation (none, mild, moderate, severe)
Pain (none, mild, moderate, severe)

μ-opioid receptor = μ-opioid receptor (Homo sapiens, UniProt P35372); details: cited from earlier work
Sequence of μ-opioid receptor (P35372 whole entry, species assumed, the tested form may be a part): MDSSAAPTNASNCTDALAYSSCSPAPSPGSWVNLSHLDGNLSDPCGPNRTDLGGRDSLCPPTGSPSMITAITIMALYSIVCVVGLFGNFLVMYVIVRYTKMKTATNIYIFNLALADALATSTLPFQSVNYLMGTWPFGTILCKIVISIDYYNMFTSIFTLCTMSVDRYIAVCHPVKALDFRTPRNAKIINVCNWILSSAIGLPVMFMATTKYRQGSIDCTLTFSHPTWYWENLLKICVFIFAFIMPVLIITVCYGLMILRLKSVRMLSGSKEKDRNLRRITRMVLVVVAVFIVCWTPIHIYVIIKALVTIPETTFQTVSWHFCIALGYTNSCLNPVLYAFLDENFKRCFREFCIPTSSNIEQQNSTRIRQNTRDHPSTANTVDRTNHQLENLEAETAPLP

[3] = 15 mg/70 kg, single 5 min iv infusion 15 mg, Mean
[4] = 15 mg/70 kg, single 5 min iv infusion 15 mg, Median
[5] = 30 mg/70 kg, single 5 min iv infusion 30 mg, Geometric Mean
[6] = 30 mg/70 kg, single 5 min iv infusion 30 mg, Mean
[7] = 30 mg/70 kg, single 5 min iv infusion 30 mg, Median
[8] = 45 mg/70 kg, single 5 min iv infusion 45 mg, Geometric Mean
[9] = 45 mg/70 kg, single 5 min iv infusion 45 mg, Mean
[10] = 45 mg/70 kg, single 5 min iv infusion 45 mg, Median

CN1CC[C@]23c4c5ccc(O)c4O[C@H]2[C@@H](OC2OC(C(=O)O)C(O)C(O)C2O)C=CC3[C@H]1C5 (stereo partly drawn) [M6G, (5α,6α)-7,8-Didehydro-4,5-epoxy-3-hydroxy-17-methylmorphinan-β-yl-β-D-glucopyranosiduronic acid]
Vd [1, 3]: 13 L
half-life [1, 3]: 1.48 h
clearance [1, 4]: 133 mL/min
AUC(0-inf) [1, 4]: 1880 ng·h/mL
Cmax [1, 4]: 1650 ng/mL
MRT inf [1, 4]: 1.69 h
Vd [1, 4]: 12.6 L
half-life [1, 4]: 1.56 h
clearance [1, 5]: 121 mL/min
AUC(0-inf) [1, 5]: 4140 ng·h/mL
Cmax [1, 5]: 3870 ng/mL
MRT inf [1, 5]: 1.76 h
Vd [1, 5]: 12.7 L
half-life [1, 5]: 1.7 h
clearance [1, 6]: 122 mL/min
AUC(0-inf) [1, 6]: 4190 ng·h/mL
Cmax [1, 6]: 3980 ng/mL
MRT inf [1, 6]: 1.77 h
Vd [1, 6]: 12.8 L
half-life [1, 6]: 1.72 h
clearance [1, 7]: 125 mL/min
AUC(0-inf) [1, 7]: 4000 ng·h/mL
Cmax [1, 7]: 4110 ng/mL
MRT inf [1, 7]: 1.81 h
Vd [1, 7]: 12.2 L
half-life [1, 7]: 1.81 h
clearance [1, 8]: 128 mL/min
AUC(0-inf) [1, 8]: 5850 ng·h/mL
Cmax [1, 8]: 5720 ng/mL
MRT inf [1, 8]: 1.66 h
Vd [1, 8]: 12.8 L
half-life [1, 8]: 1.62 h
clearance [1, 9]: 130 mL/min
AUC(0-inf) [1, 9]: 5910 ng·h/mL
Cmax [1, 9]: 5860 ng/mL
MRT inf [1, 9]: 1.68 h
Vd [1, 9]: 12.9 L
half-life [1, 9]: 1.64 h
clearance [1, 10]: 136 mL/min
AUC(0-inf) [1, 10]: 5500 ng·h/mL
Cmax [1, 10]: 5860 ng/mL
MRT inf [1, 10]: 1.78 h
Vd [1, 10]: 13.1 L
half-life [1, 10]: 1.69 h
accumulation, AUC0-∞ ([1]; five 15 mg iv infusions at 6 hour intervals): 2.9%
safety ([1]; healthy volunteers, single and multiple iv doses): No clinically significant safety issues
CLss ([1]; Geometric Mean): 7261 mL/h
MRT24-∞ ([1]; Geometric Mean): 1.63 h
CLss ([1]; Mean): 7303 mL/h
MRT24-∞ ([1]; Mean): 1.65 h
CLss ([1]; Median): 7173 mL/h
MRT24-∞ ([1]; Median): 1.64 h
patients with moderate to severe sedation ([2]; human, in vivo, intravenous): 63.5%
patients with moderate to severe pain ([2]; time window 0 to 6 hours): 50.5%
patients with moderate to severe pain ([2]; time window 6-24 hours): 19.1%
patients with moderate to severe nausea ([2]; worst assessment): 23.9%
patients with vomiting ([2]; worst assessment): 26.0%
affinity for the μ-opioid receptor compared with morphine (μ-opioid receptor): comparable affinity
